Values quoted from earlier work as cited in patent US5604233A, “Lactone stable formulation of 7-ethyl camptothecin and methods for uses thereof” (priority 1994, dated 1997).

What was measured:
[1] = Phase I, early 1970's; cited from earlier work
[2] = tested on: topoisomerase II; details: cited from earlier work
[3] = tested on: L1210 cells; details: cited from earlier work
[4] = tested on: Topoisomerase I purified from human colon carcinoma cells or calf thymus; details: cited from earlier work
[5] = tested on: topoisomerase I; details: cited from earlier work
[6] = tested on: L1210 leukemia; details: 10-100 mg/kg intraperitoneally; cited from earlier work
[7] = pH levels below 7.0; cited from earlier work
[8] = cited from earlier work

CC[C@@]1(O)C(=O)OCc2c1cc1n(c2=O)Cc2cc3ccccc3nc2-1 [camptothecin]
antitumor activity in Phase I trials [1]: antitumor activity | toxicity in Phase I trials [1]: unpredictable myelosuppression and hemorrhagic cystitis | effect on topoisomerase II [2]: no effect | protein-free breaks [3]: increase in unexplained protein-free breaks | inhibition of purified topoisomerase I [4]: inhibited | reversibility of cleavable complex stabilization [5]: readily reversible | T/C (treated/control) ratios relative to ECPT and HECPT [6]: superior | results relative to CPT-11 under the same conditions [6]: inferior | form predominating [7]: closed form | solubility in water [8]: poorly soluble in water
